Test results as given in patent US11180462B2, “Microbiocidal oxadiazole derivatives” (SYNGENTA PARTICIPATIONS AG, priority 2015, dated 2021).

Legend:
[1] = test system: Puccinia recondita f. Sp. Tritici; assay: Fungicidal activity against Puccinia recondita f. sp. tritici / wheat / leaf disc preventative (brown rust); assay type: in vivo; settings: foliar, 200 ppm in the applied formulation, wheat leaf segments, preventative, compared to untreated control leaf disks, read-out: disease control
Procedure, shortened: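 200 ppm spray on wheat cv. Kanzler leaf segments; spore inoculation +1 day; 19° C., 75% rh, 12 h/12 h light cycle; single rating of % control vs untreated at 7 to 9 days.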

Phakopsora Pachyrhizi = assay: Fungicidal activity against Phakopsora pachyrhizi / soybean / leaf disc preventative (Asian soybean rust); assay type: in vivo; settings: foliar, 200 ppm in the applied formulation, soybean leaf disks, compared to untreated control leaf disks, read-out: disease control
Procedure: Leaf disks or leaf segments of various plant species are cut from plants grown in a greenhouse. The cut leaf disks or segments are placed in multiwell plates (24-well format) onto water agar. The leaf disks are sprayed with a test solution before (preventative) or after (curative) inoculation. Compounds to be tested are prepared as DMSO solutions (max. 10 mg/ml) which are diluted to the appropriate concentration with 0.025% Tween20 just before spraying. The inoculated leaf disks or segments are incubated under defined conditions (temperature, relative humidity, light, etc.) according to the respective test system. A single evaluation of disease level is carried out 3 to 14 days after inoculation, depending on the pathosystem. Percent disease control relative to the untreated check leaf disks or segments is then calculated.
Fungicidal Activity Against Phakopsora Pachyrhizi Soybean/Leaf Disc Preventative (Asian Soybean Rust)
Soybean leaf disks are placed on water agar in multiwell plates (24-well format) and sprayed with the formulated test compound diluted in water. One day after application leaf discs are inoculated by spraying a spore suspension on the lower leaf surface. After an incubation period in a climate cabinet of 24-36 hours in darkness at 20° C. and 75% rh leaf disc are kept at 20° C. with 12 h light/day and 75% rh. The activity of a compound is assessed as percent disease control compared to untreated when an appropriate level of disease damage appears in untreated check leaf disks (12 to 14 days after application).
The following compounds at 200 ppm in the applied formulation give at least 80% disease control in this test when compared to untreated control leaf disks under the same conditions, which show extensive disease development.

[2] = test system: Glomerella lagenarium (Colletotrichum lagenarium); assay: Fungicidal activity against Glomerella lagenarium (Colletotrichum lagenarium) liquid culture / cucumber / preventative (anthracnose); assay type: cell-based; settings: Colletotrichum orbiculare; 20 ppm in the applied formulation; liquid culture (PDB), growth inhibition measured photometrically after 3 to 4 days; compared to untreated control; read-out: disease control
Procedure, shortened: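 Percent activity against the untreated check was derived from photometric growth measurements made 2 to 7 days after conidia in potato dextrose broth were combined with compound at 20 ppm. Cultures were kept dark at 24 °C and 96% humidity.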

CCCON(Cc1ccc(-c2noc(C(F)(F)F)n2)cc1)C(=O)C1CCCO1 (stereo not drawn) [Compound 1.312, N-propoxy-N-[[4-[5-(trifluoromethyl)-1,2,4-oxadiazol-3-yl]phenyl]methyl]-tetrahydrofuran-2-carboxamide]
≥ 80%: pest or weed control at 200 ppm [1] | pest or weed control at 200 ppm (Phakopsora Pachyrhizi) | inhibition of growth at 20 ppm [2]

O=C(CC(F)(F)F)N(Cc1ccc(-c2noc(C(F)(F)F)n2)cc1)CC(F)(F)F [Compound 1.704, 3,3,3-trifluoro-N-(2,2,2-trifluoroethyl)-N-[[4-[5-(trifluoromethyl)-1,2,4-oxadiazol-3-yl]phenyl]methyl]-propanamide]
≥ 80%: pest or weed control at 200 ppm [1] | pest or weed control at 200 ppm (Phakopsora Pachyrhizi) | inhibition of growth at 20 ppm [2]

O=C(C1CC1(F)F)N(CCO)Cc1ccc(-c2noc(C(F)(F)F)n2)cc1 (stereo not drawn) [Compound 1.708, 2,2-difluoro-N-(2-hydroxyethyl)-N-[[4-[5-(trifluoromethyl)-1,2,4-oxadiazol-3-yl]phenyl]methyl]-cyclopropane-carboxamide]
≥ 80%: pest or weed control at 200 ppm [1] | pest or weed control at 200 ppm (Phakopsora Pachyrhizi) | inhibition of growth at 20 ppm [2]

CCCC(=O)N(Cc1ccc(-c2noc(C(F)(F)F)n2)cc1)CC1CCCO1 (stereo not drawn) [Compound 1.416, N-(tetrahydrofuran-2-ylmethyl)-N-[[4-[5-(trifluoromethyl)-1,2,4-oxadiazol-3-yl]phenyl]methyl]-butanamide]
≥ 80%: pest or weed control at 200 ppm [1] | pest or weed control at 200 ppm (Phakopsora Pachyrhizi) | inhibition of growth at 20 ppm [2]

CC(C)N(Cc1ccc(-c2noc(C(F)(F)F)n2)cc1)C(=O)c1ccccc1Cl [Compound 1.672, 2-chloro-N-isopropyl-N-[[4-[5-(trifluoromethyl)-1,2,4-oxadiazol-3-yl]phenyl]methyl]-benzamide]
≥ 80%: pest or weed control at 200 ppm [1] | pest or weed control at 200 ppm (Phakopsora Pachyrhizi) | inhibition of growth at 20 ppm [2]

CCC(C)C(=O)N(CCO)Cc1ccc(-c2noc(C(F)(F)F)n2)cc1 (stereo not drawn) [Compound 1.720, N-(2-hydroxyethyl)-2-methyl-N-[[4-[5-(trifluoromethyl)-1,2,4-oxadiazol-3-yl]phenyl]methyl]-butanamide]
≥ 80%: pest or weed control at 200 ppm [1] | pest or weed control at 200 ppm (Phakopsora Pachyrhizi) | inhibition of growth at 20 ppm [2]

CCON(Cc1ccc(-c2noc(C(F)(F)F)n2)cc1)C(=O)C1(C#N)CC1 [Compound 1.628, 1-cyano-N-ethoxy-N-[[4-[5-(trifluoromethyl)-1,2,4-oxadiazol-3-yl]phenyl]methyl]-cyclopropane-carboxamide]
≥ 80%: pest or weed control at 200 ppm [1] | pest or weed control at 200 ppm (Phakopsora Pachyrhizi) | inhibition of growth at 20 ppm [2]

O=C(CC1CC1)N(CCO)Cc1ccc(-c2noc(C(F)(F)F)n2)cc1 [Compound 1.736, 2-cyclopropyl-N-(2-hydroxyethyl)-N-[[4-[5-(trifIuoromethyl)-1,2,4-oxadiazol-3-yl]phenyl]methyl]-acetamide]
≥ 80%: pest or weed control at 200 ppm [1] | pest or weed control at 200 ppm (Phakopsora Pachyrhizi) | inhibition of growth at 20 ppm [2]

O=C(C1CC1F)N(Cc1ccc(-c2noc(C(F)(F)F)n2)cc1)Cc1ccco1 (stereo not drawn) [Compound 1.471, 2-fluoro-N-(2-furylmethyl)-N-[[4-(5-(trifluoromethyl)-1,2,4-oxadiazol-3-yl]phenyl]methyl]-cyclopropane-carboxamide]
≥ 80%: pest or weed control at 200 ppm [1] | pest or weed control at 200 ppm (Phakopsora Pachyrhizi) | inhibition of growth at 20 ppm [2]

C=CCN(Cc1ccc(-c2noc(C(F)(F)F)n2)cc1)C(=O)C1CCCC1 [Compound 1.475, N-allyl-N-[[4-[5-(trifluoromethyl)-1,2,4-oxadiazol-3-yl]phenyl]methyl]-cyclopentane-carboxamide]
≥ 80%: pest or weed control at 200 ppm [1] | pest or weed control at 200 ppm (Phakopsora Pachyrhizi) | inhibition of growth at 20 ppm [2]

C#CCOC(=O)NC(C(=O)N(Cc1ccc(-c2noc(C(F)(F)F)n2)cc1)C1CC1)C(C)C (stereo not drawn) [Compound 1.144, prop-2-ynyl N-[1-[cyclopropyl-[[4-[5-(trifluoromethyl)-1,2,4-oxadiazol-3-yl]phenyl]methyl]-carbamoyl]-2-methyl-propyl]carbamate]
≥ 80%: pest or weed control at 200 ppm [1] | pest or weed control at 200 ppm (Phakopsora Pachyrhizi) | inhibition of growth at 20 ppm [2]

N#CC1(C(=O)N(CCO)Cc2ccc(-c3noc(C(F)(F)F)n3)cc2)CC1 [Compound 1.729, 1-cyano-N-(2-hydroxyethyl)-N-[[4-[5-(trifluoromethyl)-1,2,4-oxadiazol-3-yl]phenyl]methyl]-cyclopropane-carboxamide]
≥ 80%: pest or weed control at 200 ppm [1] | pest or weed control at 200 ppm (Phakopsora Pachyrhizi) | inhibition of growth at 20 ppm [2]

O=C(CC(F)(F)F)N(CCO)Cc1ccc(-c2noc(C(F)(F)F)n2)cc1 [Compound 1.733, 3,3,3-trifluoro-N-(2-hydroxyethyl)-N-[[4-[5-(trifluoromethyl)-1,2,4-oxadiazol-3-yl]phenyl]methyl]-propanamide]
≥ 80%: pest or weed control at 200 ppm [1] | pest or weed control at 200 ppm (Phakopsora Pachyrhizi) | inhibition of growth at 20 ppm [2]

O=C(CC1CC1)N(Cc1ccc(-c2noc(C(F)(F)F)n2)cc1)CC1CCCO1 (stereo not drawn) [Compound 1.418, 2-cyclopropyl-N-(tetrahydrofuran-2-ylmethyl)-N-[[4-[5-(trifluoromethyl)-1,2,4-oxadiazol-3-yl]phenyl]methyl]-acetamide]
≥ 80%: pest or weed control at 200 ppm [1] | pest or weed control at 200 ppm (Phakopsora Pachyrhizi) | inhibition of growth at 20 ppm [2]

C#CCN(Cc1ccc(-c2noc(C(F)(F)F)n2)cc1)C(=O)C1CC1(Cl)Cl (stereo not drawn) [Compound 1.190, 2,2-dichloro-N-prop-2-ynyl-N-[[4-[5-(trifluoromethyl)-1,2,4-oxadiazol-3-yl]phenyl]methyl]-cyclopropane-carboxamide]
≥ 80%: pest or weed control at 200 ppm [1] | pest or weed control at 200 ppm (Phakopsora Pachyrhizi) | inhibition of growth at 20 ppm [2]

CON(Cc1ccc(-c2noc(C(F)(F)F)n2)c(F)c1F)C(=O)c1ccccc1Cl [Compound 1.576, 2-chloro-N-[[2,3-difluoro-4-[5-(trifluoromethyl)-1,2,4-oxadiazol-3-yl]phenyl]methyl]-N-methoxy-benzamide]
≥ 80%: pest or weed control at 200 ppm [1] | pest or weed control at 200 ppm (Phakopsora Pachyrhizi) | inhibition of growth at 20 ppm [2]

CCC(C)(CC)C(=O)N(Cc1ccc(-c2noc(C(F)(F)F)n2)cc1)C1CC1 [Compound 1.135, N-cyclopropyl-2-ethyl-2-methyl-N-[[4-[5-(trifluoromethyl)-1,2,4-oxadiazol-3-yl]phenyl]methyl]-butanamide]
≥ 80%: pest or weed control at 200 ppm [1] | pest or weed control at 200 ppm (Phakopsora Pachyrhizi) | inhibition of growth at 20 ppm [2]

COCCCC(=O)N(Cc1ccc(-c2noc(C(F)(F)F)n2)cc1)CC1CC1 [Compound 1.238, N-(cyclopropylmethyl)-4-methoxy-N-[[4-[5-(trifluoromethyl)-1,2,4-oxadiazol-3-yl]phenyl]methyl]-butanamide]
≥ 80%: pest or weed control at 200 ppm [1] | pest or weed control at 200 ppm (Phakopsora Pachyrhizi) | inhibition of growth at 20 ppm [2]

CON(C(=O)C1(C#N)CC1)C(C)c1ccc(-c2noc(C(F)(F)F)n2)cc1 (stereo not drawn) [Compound 1.274, 1-cyano-N-methoxy-N-[1-[4-[5-(trifluoromethyl)-1,2,4-oxadiazol-3-yl]phenyl]ethyl]-cyclopropane-carboxamide]
≥ 80%: pest or weed control at 200 ppm [1] | pest or weed control at 200 ppm (Phakopsora Pachyrhizi) | inhibition of growth at 20 ppm [2]

CCCCCC(=O)N(Cc1ccc(-c2noc(C(F)(F)F)n2)cc1)C1CC1 [Compound 1.93, N-cyclopropyl-N-[[4-[5-(trifluoromethyl)-1,2,4-oxadiazol-3-yl]phenyl]methyl]-hexanamide]
≥ 80%: pest or weed control at 200 ppm [1] | pest or weed control at 200 ppm (Phakopsora Pachyrhizi) | inhibition of growth at 20 ppm [2]
